The test system of experiment [1] is L4 stage larvae of Dirofilaria immitis. As to the kind of experiment: Motility of L4 stage Dirofilaria immitis larvae, 3 days, dose response. The format is cell-based. The following applies: 72 h, read-out: EC50, motility of L4 stage D. immitis, three days at 37° C., 5% CO2, vs DMSO control.
Experiment [2] relates to Microfilaria of Dirofilaria immitis. Briefly: Motility of Dirofilaria immitis microfilariae in microtiter plate, 3 days, dose response. The format is cell-based. The following applies: 72 h, read-out: EC50, motility of D. immitis microfilaria, three days at 37° C., 5% CO2, vs DMSO control.
The subject of experiment [3] is Haemonchus contortus L1 larvae. Briefly: Haemonchus contortus larval development L1 to L3, 4 days, dose response. The settings on record: 96 h, read-out: EC50, development of H. contortus larvae from L1 to L3.
Description: Biological Example 2: Screening Method to Test Activity of Compounds Against Haemonchus contortus

These results are taken from patent publication US11999742B2, “Substituted pyrrolo[1,2-b]pyridazines as anthelmintics” (BOEHRINGER INGELHEIM VETMEDICA GMBH, priority 2021, dated 2024).

As for `Cc1cc2c(C(C)(C)C)c(C(=O)N[C@H]3COc4ccccc43)cnn2c1-c1cc(F)cc(Cl)c1Cl` [Compound A545], the EC50 in experiment [1] lay within 1000 to 10000 nM.
For `Cc1cc2c(C(C)(C)C)c(C(=O)N[C@H]3CCOc4ccccc43)cnn2c1N1C[C@H](C)C[C@H](C)C1` [Compound A528], the results for the EC50 in experiment [2], in experiment [1] and in experiment [3] were 10 to 100 nM, 10 to 100 nM and 100 to 1000 nM, respectively.
As for `Cc1cc2c(C(C)(C)C)c(C(=O)NC3CCCc4ncsc43)cnn2c1-c1cc(F)cc(Cl)c1Cl` (centres unmarked) [Compound A533], the EC50 in experiment [2] fell in the range of 10 to 100 nM; in experiment [1], 100 to 1000 nM; in experiment [3], 100 to 1000 nM.
As for `Cc1cc2c(N3CC(C)(F)C3)c(C(=O)N[C@H]3CCOc4ccccc43)cnn2c1-c1cc(Cl)cc(Cl)c1Cl` [Compound A508], the EC50 in experiment [2] was 1000 to 10000 nM.
As for `CC(C)(C)c1c(C(=O)N[C@H]2CCOc3ccccc32)cnn2c(-c3cc(Cl)cc(Cl)c3)c(Cl)cc12` [Compound A477], the values for the EC50 in experiment [2], in experiment [1] and in experiment [3] were under 10 nM, under 10 nM and 10 to 100 nM, respectively.
As to `Cc1cc2c(C(C)(C)C)c(C(=O)N[C@H]3CCc4ncccc43)cnn2c1-c1cc(F)cc(Cl)c1Cl` [Compound A559], the EC50 in experiment [2], in experiment [1] and in experiment [3] was 10 to 100 nM each time.
As to `Cc1cc2c(C(C)(C)C)c(C(=O)N[C@H]3CCOc4ccc(F)cc43)cnn2c1-c1cc(F)cc(Cl)c1Cl` [Compound A488], the EC50 is under 10 nM in experiment [2], 10 to 100 nM in experiment [1] and 10 to 100 nM in experiment [3].
For `CC1(C)CN(c2c(C(=O)N[C@H]3CCOc4ccccc43)cnn3c(-c4cc(Cl)cc(Cl)c4Cl)c(Cl)cc23)C1` [Compound A515], in experiment [3], the EC50 lay within 1000 to 10000 nM.
Turning to `Cc1cc2c(C(C)(C)C)c(C(=O)N[C@H]3CCc4sccc43)cnn2c1-c1cc(F)cc(Cl)c1Cl` [Compound A553], the EC50 in experiment [2], in experiment [1] and in experiment [3] was under 10 nM in each case.
For `O=C(N[C@H]1CCOc2ccccc21)c1cnn2c(-c3cc(Cl)cc(Cl)c3Cl)c(Cl)cc2c1N1CC(F)(F)C1` [Compound A506], the EC50 is under 10 nM in experiment [2], under 10 nM in experiment [1] and 10 to 100 nM in experiment [3].
Regarding `Cc1cc2c(C(C)(C)C)c(C(=O)N[C@H]3CCCc4cc(Cl)ccc43)cnn2c1-c1cc(F)cc(Cl)c1Cl` [Compound A549], the figures for the EC50 in experiment [2], in experiment [1] and in experiment [3] were 100 to 1000 nM, 100 to 1000 nM and 1000 to 10000 nM, respectively.
Take `Cc1cc2c(N3CC(C)(C)C3)c(C(=O)N[C@H]3CCOc4ccccc43)cnn2c1-c1cc(Cl)cc(Cl)c1Cl` [Compound A563]: the EC50 in experiment [2], in experiment [1] and in experiment [3] was 1000 to 10000 nM each time.
On to `Cc1cc2c(C(C)(C)C)c(C(=O)NN3CCOc4ccccc43)cnn2c1-c1cc(Cl)cc(Cl)c1` [Compound A482], for which the EC50 was 1000 to 10000 nM in experiment [2], 10 to 100 nM in experiment [1] and 100 to 1000 nM in experiment [3].
Take `Cc1cc2c(C(C)(C)C)c(C(=O)N[C@H]3CC4(CCCC4)Oc4ccccc43)cnn2c1-c1cc(F)cc(Cl)c1Cl` [Compound A548]: the EC50 in experiment [2] and in experiment [1] was 1000 to 10000 nM in each case.
On to `CC(C)(C)c1c(C(=O)N[C@H]2CCc3ccccc32)cnn2c(-c3cc(Cl)cc(Cl)c3)c(Cl)cc12` [Compound A492], for which the EC50 lay in the range of 10 to 100 nM in experiment [2] and 100 to 1000 nM in experiment [3].
The corresponding values for `Cc1cc2c(C(C)(C)C)c(C(=O)N[C@H]3CCOc4ccccc43)cnn2c1-c1cc(Cl)cc(Cl)c1Cl` [Compound A472] are under 10 nM and under 10 nM.
As to `Cc1cc2c(C(C)(C)C)c(C(=O)N[C@@H]3CCc4sc(Br)nc43)cnn2c1-c1cc(F)cc(Cl)c1Cl` [Compound A536b], the EC50 in experiment [2] and in experiment [1] was 1000 to 10000 nM throughout.
With `Cc1cc2c(C(C)C)c(C(=O)N[C@H]3CCOc4ccccc43)cnn2c1-c1cc(F)cc(Cl)c1Cl` [Compound A489], the EC50 in experiment [2] and in experiment [1] was under 10 nM in each case.
In the case of `Cc1cc2c(C(C)(C)C)c(C(=O)N[C@H]3CCn4cncc43)cnn2c1-c1cc(F)cc(Cl)c1Cl` [Compound A552], the EC50 in experiment [2] and in experiment [1] was 1000 to 10000 nM each time.
`Cc1cc2c(N3CCOCC3)c(C(=O)N[C@H]3CCOc4ccccc43)cnn2c1-c1cc(F)cc(Cl)c1Cl` [Compound A490]: the EC50 in experiment [2] and in experiment [1] was under 10 nM throughout.
For the molecule `Cc1cc(-c2cc(Cl)cc(Cl)c2)n2ncc(C(=O)N[C@H]3CCOc4ccccc43)c(C(C)C)c12` [Compound A469], the EC50 in experiment [2] and in experiment [1] was 10 to 100 nM each time.
For the molecule `Cc1cc2c(C(C)(C)C)c(C(=O)N[C@H]3CCOc4ccccc43)cnn2c1N1CCOCC1` [Compound A529], the EC50 in experiment [2] lay within 1000 to 10000 nM; in experiment [1] it was 100 to 1000 nM.
Take `Cc1cc2c(C(C)(C)C)c(C(=O)N[C@H]3CCCc4cnn(C(C)C)c43)cnn2c1-c1cc(F)cc(Cl)c1Cl` [Compound A546]: in experiment [1], the EC50 lay in the range of 1000 to 10000 nM.
Turning to `CC(C)c1c(C(=O)N[C@H]2CCOc3ccccc32)cnn2c(-c3cc(Cl)cc(Cl)c3)cc(C(F)(F)F)c12` [Compound A468], in experiment [2], the EC50 lay in the range of 1000 to 10000 nM.
Take `Cc1cc2c(C(C)(C)C)c(C(=O)N[C@H]3CCCc4cc(F)ccc43)cnn2c1-c1cc(F)cc(Cl)c1Cl` [Compound A538]: the EC50 in experiment [2] and in experiment [1] was 1000 to 10000 nM in each case.
Take `Cc1cc2c(N3CC(C)(C)C3)c(C(=O)N[C@H]3CCOc4ccccc43)cnn2c1-c1cc(F)cc(Cl)c1Cl` [Compound A512]: in experiment [3], the EC50 was 1000 to 10000 nM.
Consider `CN(C)c1c(C(=O)N[C@H]2CCOc3ccccc32)cnn2c(-c3cc(Cl)cc(Cl)c3)c(Cl)cc12` [Compound A475], for which the EC50 in experiment [2] is 100 to 1000 nM; in experiment [3] it was 10 to 100 nM.
In the case of `Cc1cc2c(N3CC(C)(C)C3)c(C(=O)N[C@H]3CCOc4ccccc43)cnn2c1-c1cc(F)cc(Cl)c1Cl` [Compound A564], the EC50 in experiment [2] and in experiment [1] was 1000 to 10000 nM each time.
As to `Cc1cc2c(C(C)(C)C)c(C(=O)N[C@H]3CCc4cnccc43)cnn2c1-c1cc(F)cc(Cl)c1Cl` [Compound A556], the EC50 in experiment [2] and in experiment [1] was 1000 to 10000 nM in each case.
Turning to `CC1(F)CN(c2c(C(=O)N[C@H]3CCOc4ccccc43)cnn3c(-c4cc(F)cc(Cl)c4Cl)c(Cl)cc23)C1` [Compound A514], in experiment [2], the EC50 lay in the range of 1000 to 10000 nM.
For the molecule `Cc1cc2c(N3CC(C)(F)C3)c(C(=O)N[C@H]3CCOc4ccccc43)cnn2c1-c1cc(F)cc(Cl)c1Cl` [Compound A562], the EC50 in experiment [2] and in experiment [1] was 1000 to 10000 nM throughout.
On to `Cc1cc2c(C(C)(C)C)c(C(=O)N[C@H]3CCOc4ccccc43)cnn2c1-c1cccc(Cl)c1Cl` [Compound A519], for which the EC50 in experiment [2] and in experiment [1] was under 10 nM throughout.
Take `Cc1cc2c(C(C)C)c(C(=O)Nc3cccc4ccccc34)cnn2c1-c1cc(Cl)cc(Cl)c1` [Compound A521]: in experiment [1], the EC50 was 100 to 1000 nM.
Turning to `Cc1cc2c(C(C)(C)C)c(C(=O)N[C@H]3CC(C)(C)Oc4ccccc43)cnn2c1-c1cc(F)cc(Cl)c1Cl` [Compound A547], the EC50 in experiment [2] and in experiment [1] was 1000 to 10000 nM in each case.
As to `Cc1cc2c(C(C)(C)C)c(C(=O)N[C@H]3CCOc4ccncc43)cnn2c1-c1cc(F)cc(Cl)c1Cl` [Compound A569], in experiment [2], the EC50 is under 10 nM.
Same read-out and setting: the value for `CC1(F)CN(c2c(C(=O)N[C@H]3CCOc4ccccc43)cnn3c(-c4cc(Cl)cc(Cl)c4Cl)c(Cl)cc23)C1` [Compound A509] was 100 to 1000 nM.
As to `Cc1cc2c(C(C)(C)C)c(C(=O)N[C@H]3CCc4ccccc43)cnn2c1-c1cc(Cl)cc(Cl)c1` [Compound A480], the EC50 in experiment [2] was 1000 to 10000 nM; in experiment [1], 100 to 1000 nM.
`Cc1cc2c(C(C)(C)C)c(C(=O)NC3CCCc4sccc43)cnn2c1-c1cc(F)cc(Cl)c1Cl` (centres unmarked) [Compound A537]: the EC50 in experiment [2] is under 10 nM; in experiment [1], 10 to 100 nM.
Take `CC(C)c1c(C(=O)N[C@H]2CCOc3ccccc32)cnn2c(-c3cc(Cl)cc(Cl)c3)ccc12` [Compound A470]: the EC50 in experiment [2] was 1000 to 10000 nM.
Consider `Cc1cc2c(C(C)(C)C)c(C(=O)N[C@H]3CCOc4ccccc43)cnn2c1-c1cc(Cl)cc(Cl)c1` [Compound A464], for which the EC50 in experiment [2] and in experiment [1] was under 10 nM in each case.
`Cc1cc2c(C(C)(C)C)c(C(=O)N(C)[C@H]3CCOc4ccccc43)cnn2c1-c1cc(F)cc(Cl)c1Cl` [Compound A543, 4-tert-butyl-7-(2,3-dichloro-5-fluorophenyl)-N-[(4S)-3,4-dihydro-2H-1-benzopyran-4-yl]-N,6-dimethylpyrrolo[1,2-b]pyridazine-3-carboxamide]: the EC50 in experiment [2] and in experiment [1] was 1000 to 10000 nM throughout.
For the molecule `Cc1cc2c(C(C)(C)C)c(NC(=O)NC3CCCc4ncsc43)cnn2c1-c1cc(F)cc(Cl)c1Cl` (centres unmarked) [Compound A535], the EC50 in experiment [3] was in the range of 1000 to 10000 nM.
On to `Cc1cc2c(C(C)C)c(C(=O)NN3CCOc4ccccc43)cnn2c1-c1cc(Cl)cc(Cl)c1` [Compound A497], for which the EC50 in experiment [2] and in experiment [3] was 10 to 100 nM in each case.
As for `Cc1cc2c(N(C)C)c(C(=O)N[C@H]3CCOc4ccccc43)cnn2c1-c1cc(Cl)cc(Cl)c1Cl` [Compound A568], the EC50 in experiment [2] and in experiment [3] was under 10 nM each time.
For `CC(C)c1c(C(=S)N[C@H]2CCOc3ccccc32)cnn2c(-c3cc(F)cc(Cl)c3Cl)c(Cl)cc12` [Compound A539, 6-chloro-7-(2,3-dichloro-5-fluorophenyl)-N-[(4S)-3,4-dihydro-2H-1-benzopyran-4-yl]-4-(propan-2-yl)pyrrolo[1,2-b]pyridazine-3-carbothioamide], the EC50 in experiment [2] is 10 to 100 nM; in experiment [1], 100 to 1000 nM.
The corresponding values for `CC(C)c1c(C(=O)N[C@H]2CCOc3ccccc32)cnn2c(-c3cc(Cl)cc(Cl)c3)cc(Cl)c12` [Compound A467] are 100 to 1000 nM and 100 to 1000 nM.
For `Cc1cc2c(N3CCOCC3)c(C(=O)N[C@H]3CCOc4ccccc43)cnn2c1-c1cc(F)cc(F)c1F` [Compound A491], in that order: under 10 nM and under 10 nM.
